“And” between values parts separate entries of the source, which are not always exact repeats. Equal entries are not always repeated. Where two headings read alike, the source gives them in different places.
Key:
[1] = Dynamic vapor sorption (DVS) analysis of the crystalline form; format: physicochemical
Source text: In a particular embodiment, the crystalline form of the invention is non-hygroscopic.

[2] = First-in-human trial, dose escalation phase: full-course PK profiling of PST3.1a; format: in vivo; conditions: for AUC / C-max / T1/2 / T-Max: oral; for Pre dosing: oral bid
Source text: The proposed clinical trial is a first-in-human trial (FIH) in patients with advanced solid tumours, including a dose escalation phase (part I) enrolling patients with any type of tumour with safety/tolerability as the primary endpoint, pharmacokinetics, evaluation of a potential food effect, and efficacy as secondary endpoints, followed by an expansion phase (part II) recruiting patients with glioblastoma (GBM—23 patients, cohort 1), triple negative breast cancer (TNBC—15 patients, cohort 2) and other selected solid tumours (30 patients, cohort 3). The dose for the expansion phase is selected based on the results of the escalation phase. Pharmacodynamics and response prediction is an exploratory objective of this whole FIH study.
To characterize the pharmacokinetics (PK) profile of PST3.1a by establishing the PK profile of the drug including assessment of a potential food effect on drug exposure.
A standard 3+3 design is followed for the escalation phase. PST3.1a is administered orally twice a day (bid) continuously in cycles of 21 days. At each Dose Level (DL), three patients are included and the first patient is observed for at least 21 days before enrolling the following two. Three additional patients are enrolled at each DL if a Dose Limiting Toxicity (DLT) is observed in the first three patients. No intra-patient dose escalation is allowed. The Maximum Tolerated Dose (MTD) is defined as the highest dose at which a DLT is observed in 0/3 or 1/6 patients and is considered as the recommended phase 2 dose (RP2D).
The dose escalation phase includes two steps: • In step 1, one dose (DL1) of PST3.1a is tested, corresponding to the dose of 10 mg/kg/day bid.
Two full-course PK profiling are obtained for each patient: one at C1D1 (Cycle 1/Day 1) in fasted state patients and another at C2D1 (Cycle 2/Day 1) in fed state patients (omitting the evening dose of PST3.1a on CID1 and C2D1). • In step 2, three DL (DL2a to 4a) with PST3.1a administered to fasted patients at the dose of 20, 40 and 70 mg/kg/day bid (i.e. twice a day), respectively, and/or three DL (DL2b to 4b) with PST3.1a administered to fed patients at the dose of 10, 20 and 40 mg/kg/day bid, respectively, could be opened.
For each patient included in the second step of the dose escalation, a full-course PK profiling is performed: • a. for DL2a, 3a and 4a, at C1D1 in fasted state; • b. for DL2b, 3b and 4b at C1D1 in fed state; • c. for DL2b only, 4 days before beginning treatment (C1D4), in fasted state.
PST3.1a is supplied as a drinkable solution in vials of 2 mL and 10 mL. Patients are provided with an appropriate number of 2 mL and 10 mL vials, as well as with a specific dosing device, in order to combine them to reach the appropriate volume. Volumes of DP to be administered at each dosing occasion are rounded in a standardized way according to patient body weight range, as described in Table 2.
PST3.1a is administered per os every 12±1 hours to fasted patients or after a regular meal, according to the schedule of the DL in which the patient is included. Fasting is defined as no food intake for 2 hours before and two hours after study drug administration. Cycles is of 21 days. If treatment is delayed for reasons other than toxicity, a maximal delay of 1 day is accepted.

[3] = DL1 = 10 mg/kg/day, FED patients
[4] = DL1 = 10 mg/kg/day, fasted patients
[5] = DL2 = 20 mg/kg/day, fasted patients
[6] = DL3 = 40 mg/kg/day, fasted patients

For `O=[P@@]1(c2ccccc2)O[C@H](COCc2ccccc2)[C@@H](OCc2ccccc2)[C@H](OCc2ccccc2)C1O` (some centres unmarked) [PST3.1a, 3-Hydroxy-4,5-bis-benzyloxy-6-benzyloxymethyl-2-phenyl-2-oxo-2λ5-[1,2]oxaphosphinane], the Hygroscopicity ([1]; crystalline form) was “non-hygroscopic”, the “Weight loss in DVS analysis” value ([1]; relative humidity range 0% RH to 95% RH) was “lower than 0.1%” and the “Food effect on drug exposure (fed vs fasted patients)” value ([2]; DL1 = 10 mg/kg/day, comparison of Table 4) was “significative fed effect”. The AUC [2, 3] was 426 ng·h/mL, the C-max [2, 3] was 43 ng/mL and 27.9 ng/mL and the T1/2 [2, 3] was 11.7 h. The AUC [2, 4] was 225 ng·h/mL, the C-max [2, 4] was 42 ng/mL and 28 ng/mL and the T1/2 [2, 4] was 8.1 h. The Pre dosing [2, 5] was 20.6 ng/mL, the C-max [2, 5] was 67.7 ng/mL and the T-Max [2, 5] was 1 h. The Pre dosing [2, 6] was 25.4 ng/mL and 46.3 ng/mL, the AUC [2, 6] was 650.6 ng·h/mL and 626.6 ng·h/mL and the C-max [2, 6] was 56.2 ng/mL and 97.6 ng/mL and 108.9 ng/mL. The T-Max [2, 6] was 1.5 h and 2 h (2×), the half-life ([2]; human, in vivo, po, 10 mg/kg/day, DL1 = 10 mg/kg/day, FED patients) was 17.5 h and the half-life ([2]; human, in vivo, po, 10 mg/kg/day, DL1 = 10 mg/kg/day, fasted patients) was 9.2 h. For the same compound, the AUC ([2]; human, in vivo, po, 10 mg/kg/day, DL1 = 10 mg/kg/day, FED patients, read-out: AUC) was 587 ng·h/mL, the AUC ([2]; human, in vivo, po, 10 mg/kg/day, DL1 = 10 mg/kg/day, fasted patients, read-out: AUC) was 310 ng·h/mL and the half-life ([2]; human, in vivo, po, 20 mg/kg/day, DL2 = 20 mg/kg/day, fasted patients) was 7.9 h. The AUC ([2]; human, in vivo, po, 20 mg/kg/day, DL2 = 20 mg/kg/day, fasted patients, read-out: AUC) was 340 ng·h/mL and the AUC ([2]; human, in vivo, po, 40 mg/kg/day, DL3 = 40 mg/kg/day, fasted patients, read-out: AUC) was 336 ng·h/mL.
